Reference: paper PMC3923439, “Anti-inflammatory properties of a novel peptide interleukin 1 receptor antagonist” (Journal of Neuroinflammation, 2014)
Positions of bridges follow the written chain, without caps; N, C: chain ends. Chains are numbered I, II in the order given. No end group written: not given here.

Assays:
[1] = test system: neonatal rat pancreatic islets; experiment: IL-1β-induced rat islet cell apoptosis (cell death detection ELISA); type: cell-based
Description: Neonatal rat islets were isolated from 3- to 6-day-old outbred Wistar rats (Taconic, Ejby, Denmark) as previously described. Islets were precultured and maintained in RPMI 1640 medium (Gibco/Life Technologies) supplemented with 20 mmol/L HEPES buffer, 0.038% (wt/vol) NaHCO3, 100 U/ml penicillin, 100 µg/ml streptomycin and 10% (vol/vol) newborn calf serum (NCS) at 37°C in humidified atmospheric air. Prior to experimentation, the islets were randomly distributed to 24-well dishes and incubated for 2 hours in RPMI 1640 medium supplemented as described above, but with 0.5% (vol/vol) NCS relevant reagents were added as indicated.
(§1) For cell death detection, rat islets were incubated with 150 pg/ml IL-1β (BD Pharmingen, San Diego, CA, USA) alone or in combination with various concentrations of Ana and Ilantide for 24 hours at 37°C in humidified atmospheric air. Rat islet cell death was assessed by cell death detection ELISA (Roche, Lund, Sweden) as previously described. As a surrogate measure of nitric oxide production, Griess reagent (1:1 aqueous mixture of 0.1% naphthylethylenediamine hydrochloride and 1% sulfanilamide + 5% H3PO4) was mixed in a 1:1 ratio with 100 μl of supernatant samples to determine the nitrite content in supernatants from the cell death assays described above.
Figure 7 Effect of Ilantide on interleukin 1β-induced rat islet cell apoptosis. Rat pancreatic islets were preincubated for 30 minutes in the absence or presence of various concentrations of anakinra (A), Ilantide-m (B) or Ilantide-t (C) and then exposed to […] interleukin 1β (IL-1β) for 24 hours. Cytokine-induced apoptosis was determined by cell death detection enzyme-linked immunosorbent assay. Apoptosis rates are presented as fold induction compared with untreated control islets (white bars). The data from four independent experiments are presented as mean ± SEM. *P < 0.05 and **P < 0.01 compared with cultures treated with IL-1β alone (one-way analysis of variance followed by Dunnett’s post hoc test).

[2] = test system: neonatal rat pancreatic islets; experiment: IL-1β-induced nitric oxide production (nitrite, Griess reagent); type: cell-based; conditions: nitrites in supernatants of the apoptosis experiments, four independent experiments
Description: as §1
Figure 8 Effect of Ilantide on interleukin 1β-induced nitric oxide production. Anakinra (A) but none of the peptides, Ilantide-m (B) or Ilantide-t (C), inhibited interleukin 1β (IL-1β)-induced nitric oxide production. The results of four independent experiments are shown. *P < 0.05 and **P < 0.01 compared with cultures treated with IL-1 alone (one-way analysis of variance followed by Dunnett’s post hoc test).

[3] = test system: LPS-induced neuroinflammation; experiment: Lipopolysaccharide-induced impairment of social behavior; type: in vivo; conditions: rat
Description: The peripheral administration of LPS, the active fragment of bacterial endotoxin, results in an increase in the plasma levels of all proinflammatory cytokines and behavioral depression. LPS-induced behavioral depression was assessed by measuring the reduction of the duration of social interaction during 4-minute sessions. Six- to seven-week-old rats were handled for five days, habituated to the test cages and the experiment room and trained for social interaction with three-week-old juvenile rats introduced into the test cage for four minutes two days before the actual experiment. On the day of the experiment, the rats were intraperitoneally injected (i.p.) with saline or LPS (Escherichia coli 0111:B4; Sigma-Aldrich) dissolved in saline (250 μg/kg). Immediately after the i.p. injection, Ilantide-t (Ila; 10 mg/kg, equivalent to 2.1 μmol/kg), Ana ([…], equivalent to 5.8 μmol/kg) or saline was injected subcutaneously. The volume of all of the injections was 1.0 ml/kg. Six experimental groups were used: vehicle i.p./vehicle s.c. (veh/veh; n = 10), vehicle i.p./Ilantide-t s.c. (veh/Ila; n = 8), vehicle i.p./Ana s.c. (veh/Ana; n = 9), LPS i.p./vehicle s.c. (LPS/veh; n = 10), LPS i.p./Ilantide-t s.c. (LPS/Ila; n = 11) and LPS i.p./Ana s.c. (LPS/Ana; n = 11). The injections and weighing of the rats were performed immediately after the first test session (0 h), and the animals were tested and weighed again 2, 4, 6, 8, and 24 hours later. Different juvenile animals were presented on each occasion. Social interaction consisted of anogenital sniffing, licking and chewing the fur of the juveniles by the experimental animals and was monitored with a video camera. […] The duration of social interaction at each time point is expressed as the percentage of baseline values and was averaged for each experimental group. Social interaction was scored by an observer who was blinded to the treatment of the animals. For evaluation of levels of pro- and anti-inflammatory cytokines in blood, rats were injected with LPS and then immediately with either vehicle (n = 8) or Ilantide-t (n = 8) as described above. In addition, a control group of animals (n = 4) was treated with Ilantide-t alone (control). Blood samples were collected at 0, 2 and 6 hours after injections as described for the pharmacokinetics study and stored at -20°C until use. The levels of IL-6, IFN-γ and IL-10 were determined using corresponding rat ELISA kits according to the manufacturer’s protocols (all from BD Biosciences, San Diego, CA, USA).

ectodomain of IL-1RI = target: T1, ectodomain of IL-1RI (Homo sapiens, UniProt P14778); experiment: Surface plasmon resonance binding of immobilized ligand to recombinant IL-1RI ectodomain; conditions: SPR, Biacore 2000, ligand immobilized on CM4 chip, IL-1RI ectodomain injected, 25°C, pH 7.4
T1 construct: the recombinant ectodomain of IL-1RI (R&D Systems) was injected; purchased R&D Systems
T1 sequence (P14778 18-336 limits assumed): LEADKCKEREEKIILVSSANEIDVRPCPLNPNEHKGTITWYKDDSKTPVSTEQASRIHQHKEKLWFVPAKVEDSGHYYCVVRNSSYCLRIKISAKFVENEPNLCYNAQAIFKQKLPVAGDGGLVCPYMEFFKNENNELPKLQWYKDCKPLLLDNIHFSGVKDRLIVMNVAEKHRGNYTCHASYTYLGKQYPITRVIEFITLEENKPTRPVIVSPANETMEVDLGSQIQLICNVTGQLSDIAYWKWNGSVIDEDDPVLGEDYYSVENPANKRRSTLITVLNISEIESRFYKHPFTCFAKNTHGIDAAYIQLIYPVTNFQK
Description: The binding analysis was performed using a Biacore 2000 instrument (GE Healthcare Life Sciences) that contained 150 mM NaCl as running buffer at 25°C with 10 mM sodium phosphate (pH 7.4). The flow rate was 5 μl/min during immobilization. Ilantide peptide, IL-1β or IL-1Ra was immobilized on a CM4 sensor chip according to the manufacturer’s instructions, after which the recombinant ectodomain of IL-1RI (R&D Systems) was injected. The neural cell adhesion molecule (NCAM) immunoglobulin modules 1 and 2 (Ig1 and Ig2) were used as a negative control protein [9]. The data were analyzed using nonlinear curve-fitting with the manufacturer’s software.

I: SGRKSSKMQAKK-NH2 / II: SGRKSSKMQAK / III: SGRKSSKMQA / IV: SGRKSSKMQA (amide I:11-IV:C, I:12-II:C, II:11-III:C; C-terminus assumed) [Ilantide-t]
Reduction of IL-1-induced apoptosis relative to the maximal effect of Ana ([1]; Ilantide-t in high molar excess): 1.5 ×
Maximal inhibition of IL-1β-induced apoptosis ([1]; rat islets, 30 minutes preincubation, 8.68 nM (150 pg/ml) IL-1β, 24 hours, four independent experiments): 93%
Inhibition of IL-1β-induced nitric oxide production [2]: none
IL-10 plasma levels ([3]; 2 hours after LPS administration, Ilantide-t 10 mg/kg s.c., ELISA, P < 0.01): increase in IL-10 plasma levels
Plasma levels of proinflammatory cytokines (IL-6 and IFN-γ) ([3]; 6 hours following LPS injection, Ilantide-t 10 mg/kg s.c., ELISA, tendency toward reduction): not statistically significant
Effect on LPS-induced body weight decrease ([3]; 24 hours after LPS 250 μg/kg i.p., Ilantide-t 10 mg/kg, Ana 100 mg/kg s.c., P < 0.05): attenuated the anorexigenic effect of LPS
Effect on LPS-induced depression of social activity (sickness behavior) ([3]; LPS 250 μg/kg i.p., Ilantide-t 10 mg/kg s.c., Ana 100 mg/kg s.c., 2 to 24 hours): attenuated social depression

IL-1Ra: recombinant interleukin 1 receptor antagonist purchased from R&D Systems
k d (ectodomain of IL-1RI): 3.62 ± 0.65 × 10^-3 s^-1
